From patent publication US9090633B2, “Substituted 4-(arylamino) selenophenopyrimidine compounds and methods of use thereof” (KASINA LAILA INNOVA PHARMACEUTICALS PRIVATE LIMITED, priority 2010, dated 2013) come the findings set out here.

The subject of assay [1] is human prostate DU145 cells. As to the kind of experiment: MTT based cell proliferation assay, DU145. Particulars: Homo sapiens; for IC50: DU-145, 72 h, read-out: Cell proliferation inhibition in DU145 (Prostate carcinoma), IC50. As for the experimental part: (§1) MTT [3-(4,5-dimethylthiazol-2-yl)-2,5-diphenyltetrazolium bromide incorporation based cell proliferation assay was performed using standard procedure. […] The assay was carried out according to the instructions provided by the vendor. […] Vehicle control culture wells received only a maximum of 0.5% DMSO. Thereafter, 0.5 mg/ml of MTT reagent was added to each well and the microplate was incubated further for 4 h at 37° C. in presence of 5% CO2. Finally, the cells were solubilized by adding solubilizing solution and allowed to incubate at 37° C. overnight. After complete solubilization of the formazan crystals the absorbance was read at 540 nm in a microplate reader (BioRad, USA).
(§2) The evaluation of cell proliferation inhibitory activities of the compounds was done in two phases—(1) Screening, and (2) half-maximal inhibitory concentration (IC50) determination. In the screening phase, the cells were treated with different concentrations.

For assay [2], the system named is human colorectal carcinoma HT29 cells. As to the kind of experiment: MTT based cell proliferation assay, HT29. As to conditions: Homo sapiens; for IC50: HT-29, 72 h, read-out: Cell proliferation inhibition in HT29 (Colon carcinoma), IC50. As for the experimental part:
as §1, §2

For assay [3], the system named is human lung carcinoma A549 cells. As to the kind of experiment: MTT based cell proliferation assay, A549. Particulars: Homo sapiens; for IC50: A549, 72 h, read-out: Cell proliferation inhibition in A549 (Lung carcinoma), IC50. As for the experimental part:
as §1, §2

Setting [4] is: DU-145, read-out: Cell proliferation inhibition in DU145 (Prostate carcinoma).
The mark [5] stands for this setting: HT-29, read-out: Cell proliferation inhibition in HT29 (Colon carcinoma).
[6] abbreviates: A549, read-out: Cell proliferation inhibition in A549 (Lung carcinoma).

For `CC(C)(C)c1c[se]c2ncnc(Nc3ccc(F)c(Cl)c3)c12` [Compound 13, [5-(tert-butyl)selenopheno[3,2-e]pyrimidin-4-yl](3-chloro-4-fluorophenyl)amine], the values for the IC50 in assay [1], in assay [2] and in assay [3] were 41.6 µM, 37.9 µM and 15 µM, respectively.
As for `C#Cc1cccc(Nc2ncnc3[se]c4c(c23)CCNC4)c1` [Compound 21, (3-ethynylphenyl)-5,6,7,8-tetrahydropyrimidino[5′,6′-5,4]selenopheno[2,3-c]pyridine-4-ylamine], the inhibition at 25.575 µM stood at 12.9% in assay [1] (setting [4]), 4.66% in assay [2] (setting [5]) and 11.6% in assay [3] (setting [6]).
As to `Fc1ccc(Nc2ncnc3[se]c4c(c23)CCCC4)cc1Cl` [Compound 1, (3-chloro-4-fluorophenyl)-5,6,7,8-tetrahydrobenzo[1,2-b]pyrimidino[5,6-d]selenophen-4-ylamine], the IC50 in assay [1] amounted to 8.37 µM.
As to `COC(=O)c1cc(Nc2ncnc3[se]c4c(c23)CCNC4)c(C)s1` [Compound 23, methyl 5-methyl-4-(5,6,7,8-tetrahydropyrimidino[5′,6′-5,4]selenopheno[2,3-c]pyridin-4-ylamino)thiophene-2-carboxylate], the results for the inhibition at 22.472 µM in assay [1] (setting [4]), in assay [2] (setting [5]) and in assay [3] (setting [6]) were 5.08%, 15.4% and 8.64%, respectively.
Turning to `c1cnc(Nc2ncnc3[se]c4c(c23)CCCC4)cn1` [Compound 5, pyrazin-2-yl-5,6,7,8-tetrahydrobenzo[1,2-b]pyrimidino[5,6-d]selenophen-4-ylamine], the IC50 in assay [1] turned out to be 16.4 µM.
As for `Cc1c(C(=O)NCCCl)[se]c2ncnc(Nc3ccc(F)c(Cl)c3)c12` [Compound 25], the IC50 amounted to 8.51 µM in assay [1] and 9.24 µM in assay [2]. For the same molecule, in assay [3] (setting [6]), the inhibition at 19.92 µM worked out at 0.19%.
Turning to `CC(C)(C)c1cc2ncnc(Nc3ccc(F)c(Cl)c3)c2[se]1` [Compound 28, [6-(tert-butyl)selenopheno[2,3-e]pyrimidin-4-yl](3-chloro-4-fluorophenyl)amine], the values for the IC50 in assay [1], in assay [2] and in assay [3] were 82.7 µM, 71 µM and 109 µM, respectively.
For the molecule `Clc1cc(Nc2ncnc3[se]c4c(c23)CCCC4)cc(Cl)n1` [Compound 3, (2,6-dichloropyridin-4-yl)-5,6,7,8-tetrahydrobenzo[1,2-b]pyrimidino[5,6-d]selenophen-4-ylamine], the inhibition at 22.935 µM is 18.3% in assay [1] (setting [4]), 13.8% in assay [2] (setting [5]) and 15.6% in assay [3] (setting [6]).
For the molecule `CC(C)(C)c1cc(Nc2ncnc3[se]c4c(c23)CCCC4)c(C(N)=O)s1` [Compound 7, (5-tert-butyl)-3-(5,6,7,8-tetrahydrobenzo[1,2-b]pyrimidino[5,6-d]selenophen-4-ylamino)thiophene-2-carboxamide], the IC50 in assay [2] amounted to 9.3 µM.
With `Brc1cncc(Nc2ncnc3[se]c4c(c23)CCCC4)c1` [Compound 2, (5-bromo(3-pyridyl))-5,6,7,8-tetrahydrobenzo[1,2-b]pyrimidino[5,6-d]selenophen-4-ylamine], the figures for the inhibition at 22.421 µM in assay [1] (setting [4]), in assay [2] (setting [5]) and in assay [3] (setting [6]) were 13.1%, 11.1% and 20.7%, respectively.
For the molecule `Fc1ccc(Nc2ncnc3c2[se]c2ccccc23)cc1Cl` [Compound 30, benzo[d]pyrimidino[5,6-b]selenophen-4-yl(3-chloro-4-fluorophenyl)amine], the values for the IC50 in assay [1] and in assay [3] were 26.8 µM and 21.8 µM, respectively. The inhibition at 25 µM in assay [2] (setting [5]) amounted to 38.1%.
Take `Fc1ccc(Nc2ncnc3c2[se]c2ncccc23)cc1Cl` [Compound 31, (3-chloro-4-fluorophenyl)pyrimidino[4′,5′-5,4]selenopheno[2,3-b]pyridin-4-ylamine]: the values for the inhibition at 25 µM in assay [1] (setting [4]), in assay [2] (setting [5]) and in assay [3] (setting [6]) were 22%, 5.21% and 30.2%, respectively.
Regarding `O=C1CCc2c([se]c3ncnc(Nc4ccc(F)c(Cl)c4)c23)C1` [Compound 26, 4-[(3-chloro-4-fluorophenyl)amino]-5,6,8-trihydrobenzo[2,1-b]pyrimidino[5,4-d]selenophen-7-one], the inhibition at 23.148 µM in assay [1] (setting [4]) stood at 65.1%; in assay [2] (setting [5]), 30.9%; in assay [3] (setting [6]), 17.5%.
In the case of `Cc1c(C(N)=O)[se]c2ncnc(Nc3ccc(F)c(Cl)c3)c12` [Compound 17, 4-[(3-chloro-4-fluorophenyl)amino]-5-methylselenopheno[2,3-d]pyrimidine-6-carboxamide], the values for the inhibition at 25 µM in assay [1] (setting [4]) and in assay [3] (setting [6]) were 44.4% and 21.4%, respectively.
As to `NS(=O)(=O)c1ccc(Nc2ncnc3[se]c4c(c23)CCCC4)cc1` [Compound 12, 4-(5,6,7,8-tetrahydrobenzo[1,2-b]pyrimidino[5,6-d]selenophen-4-ylamino)benzenesulfonamide], the inhibition at 24.449 µM in assay [2] (setting [5]) turned out to be 15.6%.
For `Fc1ccc(Nc2ncnc3[se]cc(-c4ccccc4)c23)cc1Cl` [Compound 14, (3-chloro-4-fluorophenyl)(5-phenylselenopheno[3,2-e]pyrimidin-4-yl]amine], the IC50 in assay [1] was 105 µM; in assay [3] it was 121 µM.
As for `CS(=O)(=O)N1CCc2c([se]c3ncnc(Nc4ccc(F)c(Cl)c4)c23)C1` [Compound 19, 4[(3-chloro-4-fluorophenyl)amino]-7-(methylsulfonyl)-5,6,7,8-tetrahydro-pyrimidino[5′,4′-5,4]selenopheno[2,3-c]pyridine], the inhibition at 25 µM in assay [1] (setting [4]) turned out to be 29.2%; in assay [2] (setting [5]) it was 3.07%; in assay [3] (setting [6]), 27.4%.
With `Cc1c(C(=O)O)[se]c2ncnc(Nc3ccc(F)c(Cl)c3)c12` [Compound 15, 4-[(3-chloro-4-fluorophenyl)amino]-5-methylselenopheno[2,3-d]pyrimidine-6-carboxylic acid], the inhibition at 240.539 µM in assay [1] (setting [4]) came out at 41.2%; in assay [2] (setting [5]), 18.9%; in assay [3] (setting [6]), 25%.
On to `Fc1ccc(Nc2ncnc3cc(-c4ccccc4)[se]c23)cc1Cl` [Compound 29, (3-chloro-4-fluorophenyl)(6-phenylselenopheno[2,3-e]pyrimidin-4-yl)amine], for which the inhibition at 25 µM was 30.8% in assay [1] (setting [4]) and 43.1% in assay [2] (setting [5]). Further, in assay [3] (setting [6]), the inhibition at 30 µM is 45.5%.
For the molecule `Fc1ccc(Nc2ncnc3[se]c4c(c23)CCNC4)cc1Cl` [Compound 18, (3-chloro-4-fluorophenyl)-5,6,7,8-tetrahydropyrimidino[5′,6′-5,4]selenopheno[2,3-c]pyridine-4-ylamine], the IC50 turned out to be 42.5 µM in assay [1], 39.1 µM in assay [2] and 82.6 µM in assay [3].
The corresponding values for `Clc1cc(Nc2ncnc3[se]c4c(c23)CCCC4)nc(Cl)n1` [Compound 4, (2,6-dichloropyrimidin-4-yl)-5,6,7,8-tetrahydrobenzo[1,2-b]pyrimidino[5,6-d]selenophen-4-ylamine] are 37.1 µM, 162 µM and 42.3 µM.
As for `Brc1cccc(Nc2ncnc3[se]c4c(c23)CCNC4)c1` [Compound 20, (3-bromophenyl)-5,6,7,8-tetrahydropyrimidino[5′,6′-5,4]selenopheno[2,3-c]pyridin-4-ylamine], the inhibition at 22.421 µM in assay [1] (setting [4]) worked out at 13.4%; in assay [2] (setting [5]), 8.96%; in assay [3] (setting [6]), 0.45%.
